Consider 1 compound from PMC4561889, “Geranylgeranylacetone selectively binds to the HSP70 of Helicobacter pylori and alters its coccoid morphology” (Scientific Reports, 2015).

For orientation: Kd means the concentration at which binding is half-saturated.

The target in test [1] is T1, HSP70 (human HSP70) (Homo sapiens, UniProt P0DMV8).
T1 construct: gene HSPA1A; full-length cDNA (from R. Morimoto) in pCold I (vector His tag, cleavage not mentioned); forward primer encodes N-terminus MAKAAAV
Put plainly: SPR (BIAcore […]), HSP70 amine-coupled to CM5 chip. In kind it is binding. In general terms: SPR reads the build-up and loss of mass on a sensor chip optically.

The target of test [2] is T1, HSP70 (human HSP70). Put plainly: citrate synthase thermal aggregation (light scattering, […] nm). Particulars: 50 mM HEPES pH 7.4, 50 C; 50 μM HSP70, 0.25 μM citrate synthase, 5 mM GGA. In kind it is biochemical.
In the next test the target is T2, DnaK (H. pylori HSP70) (Helicobacter pylori, UniProt P55994).
T2 construct: full length cloned from genomic DNA of ATCC43504 in pCold I (vector His tag, cleavage not mentioned), E. coli BL21, Ni-NTA
T2 sequence (P55994 2-620): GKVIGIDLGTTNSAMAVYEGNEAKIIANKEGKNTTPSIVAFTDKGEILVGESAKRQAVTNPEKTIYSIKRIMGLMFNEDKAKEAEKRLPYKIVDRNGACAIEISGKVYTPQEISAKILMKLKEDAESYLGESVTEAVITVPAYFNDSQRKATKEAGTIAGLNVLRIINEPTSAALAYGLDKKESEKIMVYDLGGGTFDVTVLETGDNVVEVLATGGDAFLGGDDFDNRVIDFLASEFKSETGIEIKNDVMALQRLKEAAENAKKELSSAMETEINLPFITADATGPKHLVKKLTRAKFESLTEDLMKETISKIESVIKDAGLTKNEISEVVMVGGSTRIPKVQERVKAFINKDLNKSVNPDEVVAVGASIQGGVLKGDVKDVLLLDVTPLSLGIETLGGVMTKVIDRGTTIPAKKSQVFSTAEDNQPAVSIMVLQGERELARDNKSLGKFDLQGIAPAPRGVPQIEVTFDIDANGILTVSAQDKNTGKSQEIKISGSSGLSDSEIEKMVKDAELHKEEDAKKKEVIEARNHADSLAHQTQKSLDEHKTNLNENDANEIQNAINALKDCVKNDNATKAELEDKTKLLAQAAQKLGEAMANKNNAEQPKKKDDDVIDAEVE
Put plainly: SPR (BIAcore […]), DnaK amine-coupled to CM5 chip. In kind it is binding.

T1 sequence (P0DMV8 whole entry): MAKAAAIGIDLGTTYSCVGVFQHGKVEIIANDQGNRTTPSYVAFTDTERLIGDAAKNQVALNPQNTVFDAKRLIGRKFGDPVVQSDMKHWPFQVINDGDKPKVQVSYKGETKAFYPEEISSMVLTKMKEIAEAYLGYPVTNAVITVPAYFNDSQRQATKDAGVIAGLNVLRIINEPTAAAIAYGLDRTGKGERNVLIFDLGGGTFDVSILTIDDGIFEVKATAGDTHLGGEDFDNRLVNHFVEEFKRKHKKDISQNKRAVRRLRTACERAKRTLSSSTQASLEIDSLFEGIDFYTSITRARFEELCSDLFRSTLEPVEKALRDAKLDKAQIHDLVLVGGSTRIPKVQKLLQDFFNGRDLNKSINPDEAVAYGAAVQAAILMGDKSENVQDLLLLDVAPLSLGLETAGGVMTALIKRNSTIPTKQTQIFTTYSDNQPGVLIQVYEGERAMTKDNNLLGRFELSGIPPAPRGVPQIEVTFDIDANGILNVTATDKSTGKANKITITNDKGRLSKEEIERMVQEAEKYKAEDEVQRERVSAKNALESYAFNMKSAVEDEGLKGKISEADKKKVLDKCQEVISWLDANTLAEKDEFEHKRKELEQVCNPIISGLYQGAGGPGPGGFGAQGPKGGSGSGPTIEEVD

Turning to `CC(=O)CC/C=C(\C)CC/C=C(\C)CC/C=C(\C)CCC=C(C)C` [GGA, 6,10,14,18-tetramethyl-5,9,13,17-nonadecatetraen-2-one], the Kd at HSP70 (human HSP70) [1] worked out at 2000 nM; on DnaK (H. pylori HSP70), 75.5 nM. For the same compound, the “% reduction of chaperone activity at 5 mM” value on HSP70 (human HSP70) [2] was 15%.
